According to patent publication US8841290B2, “Substituted tetrahydronaphthalenes, method for the production thereof, and use thereof as drugs” (Sanofi, priority 2009, dated 2014):
Values after ≈ are worked out from the molar mass of the structure shown.

Columns and labels:
human MCH receptor = molecular target: T1, human MCH receptor (Homo sapiens, UniProt Q99705); experiment: calcium mobilization assay (FLIPR), functional IC50 of MCH1R antagonists; type: cell-based; details: recombinant HEK293 cell line expressing the human MCH receptor; calcium flux after addition of agonist (MCH); read-out: IC50
T1 construct: expressed in transfected cells
Excerpt: A difference from the reference was, however, the use of the plasmid pEAK8 from EDGE Biosystems (USA) for the construction of the expression vector. The host used for the transfection was a transformed HEK cell line named “PEAK Stable Cells” (likewise from EDGE Biosystems). Functional measurements of the cellular calcium flux after addition of agonist (MCH) in the presence of ligand of the invention took place with the aid of the FLIPR apparatus from Molecular Devices (USA), using protocols of the apparatus manufacturer.

[1] = nephelometric (kinetic) solubility determination, phosphate buffer pH 7.4; type: physicochemical; details: aqueous buffer, kinetic from dmso stock, nephelometric, Table 7
Procedure: A DMSO solution of the test compound (2.5 mM; 0.5 μl) is pipetted into 200 μl of an aqueous test solution (e.g. phosphate-buffered saline, 10×, 1M, Sigma, adjusted to 10 mM, pH 7.4) in a 96-well microtiter plate, and the turbidity is measured at the resulting theoretical concentration for the test compound of 6.25 μM using a nephelometer (e.g. Nephelostar Galaxy, BMG Labtech). The concentration of the test compound in the aqueous test solution is then raised to a theoretical 12.5 μM by adding further DMSO solution (2.5 mM; 0.5 μl), and the turbidity measurement is repeated. Further additions of DMSO solutions (1 μl, 2.5 mM; 0.5 μl, 10 mM; then 9×1 μl, 10 mM resulting in theoretical concentrations of 25 μM, 50 μM, 100 μM, 150 μM, 200 μM, 250 μM, 300 μM, 350 μM, 400 μM, 450 μM and 500 μM) with turbidity measurement in between complete the measurement process.
Evaluation: The turbidity values from the nephelometer are plotted against the theoretical concentration of the test compound in the aqueous test solution. As soon as a significant turbidity is detected (e.g. 5 times above the control value of the aqueous test solution) at a theoretical concentration, the level of concentration below this is stated to be the solubility limit of the test compound in the test solution. Thus, the maximum possible measurement range emerges as values<6.25 μM, 6.25-500 μM and >500 μM.

T1 sequence (Q99705 whole entry): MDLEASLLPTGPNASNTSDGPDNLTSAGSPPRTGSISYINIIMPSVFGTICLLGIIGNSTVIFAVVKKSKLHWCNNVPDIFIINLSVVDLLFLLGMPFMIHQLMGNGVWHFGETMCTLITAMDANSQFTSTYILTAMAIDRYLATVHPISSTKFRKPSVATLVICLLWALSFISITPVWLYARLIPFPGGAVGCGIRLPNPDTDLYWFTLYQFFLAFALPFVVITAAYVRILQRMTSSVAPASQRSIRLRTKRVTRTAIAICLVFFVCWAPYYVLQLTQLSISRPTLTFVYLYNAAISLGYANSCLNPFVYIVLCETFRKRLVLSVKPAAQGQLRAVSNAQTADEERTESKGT

With CN(C(=O)c1ccc(OCC2CC2)cc1)[C@H]1CCc2cc(CNCC3CCOCC3)ccc2C1 [Example 1-01, 4-Cyclopropylmethoxy-N-methyl-N—((S)-6-{[(tetrahydropyran-4-ylmethyl)amino]methyl}-1,2,3,4-tetrahydronaphthalen-2-yl)benzamide] the IC50 (human MCH receptor) was 0.121 µM and the solubility kinetic [1] was 153 µg/mL (≈ 331 µM).
With CN(C(=O)c1ccc(OCC2CC2)cc1)[C@H]1CCc2cc(CNC[C@@H]3CCCO3)ccc2C1 [Example 1-02] the IC50 (human MCH receptor) was 0.215 µM and the solubility kinetic [1] was > 281 µg/mL.
With CN(C(=O)c1ccc(OCC2CC2)cc1)[C@H]1CCc2cc(CNC[C@H]3CCCO3)ccc2C1 [Example 1-03] the IC50 (human MCH receptor) was 0.13 µM and the solubility kinetic [1] was > 281 µg/mL.
With CN(C(=O)c1ccc(OCC2CC2)cc1)[C@H]1CCc2cc(CNCC3CCOC3)ccc2C1 (some centres unmarked) [Example 1-04] the IC50 (human MCH receptor) was 0.116 µM and the solubility kinetic [1] was > 281 µg/mL.
With CN(C(=O)c1ccc(OCC2CC2)cc1)[C@H]1CCc2cc(CNCC3(C)COC3)ccc2C1 [Example 1-05] the IC50 (human MCH receptor) was 0.125 µM and the solubility kinetic [1] was > 281 µg/mL.
For CN(C(=O)c1ccc(OCC2CC2)cc1)[C@H]1CCc2cc(CNCC3CCCOC3)ccc2C1 (some centres unmarked) [Example 1-07], the IC50 (human MCH receptor) was 0.154 µM and the solubility kinetic [1] was > 288 µg/mL.
For CN(C(=O)c1ccc(OCC2CC2)cc1)[C@H]1CCc2cc(CNCC3(C)CCOCC3)ccc2C1 [Example 1-08], the IC50 (human MCH receptor) was 0.126 µM and the solubility kinetic [1] was > 295 µg/mL.
With CN(C(=O)c1ccc(OCC2CC2)cc1)[C@H]1CCc2cc(CNCC3COCCO3)ccc2C1 (some centres unmarked) [Example 1-09] the IC50 (human MCH receptor) was 0.124 µM and the solubility kinetic [1] was > 289 µg/mL.
In the case of CN(C(=O)c1ccc(OCC2CC2)cc1)[C@H]1CCc2cc(CNCCC3CCCO3)ccc2C1 (some centres unmarked) [Example 1-10], the IC50 (human MCH receptor) is reported as 0.14 µM and the solubility kinetic [1] is reported as > 288 µg/mL.
In the case of CN(C(=O)c1ccc(OCC2CC2)cc1)[C@H]1CCc2cc(CNCC3(C)CCCO3)ccc2C1 (some centres unmarked) [Example 1-11], the IC50 (human MCH receptor) is reported as 0.172 µM and the solubility kinetic [1] is reported as > 288 µg/mL.
In the case of CC1CCC(CNCc2ccc3c(c2)CC[C@H](N(C)C(=O)c2ccc(OCC4CC4)cc2)C3)O1 (some centres unmarked) [Example 1-12], the IC50 (human MCH receptor) is reported as 0.165 µM and the solubility kinetic [1] is reported as > 288 µg/mL.
For CN(Cc1ccc2c(c1)CC[C@H](N(C)C(=O)c1ccc(OCC3CC3)cc1)C2)CC1CCOCC1 [Example 1-13], the IC50 (human MCH receptor) was 0.284 µM and the solubility kinetic [1] was > 295 µg/mL.
In the case of CCN(Cc1ccc2c(c1)CC[C@H](N(C)C(=O)c1ccc(OCC3CC3)cc1)C2)CC1CCOCC1 [Example 1-14], the IC50 (human MCH receptor) is reported as 0.507 µM and the solubility kinetic [1] is reported as 30 µg/mL (≈ 61.1 µM).
In the case of CN(C(=O)c1ccc(C2CCCCC2)cc1)[C@H]1CCc2cc(CNCC3CCOCC3)ccc2C1 [Example 2-01, 4-Cyclohexyl-N-methyl-N—((S)-6-{[(tetrahydropyran-4-ylmethyl)amino]methyl}-1,2,3,4-tetrahydronaphthalen-2-yl)benzamide], the IC50 (human MCH receptor) is reported as 1.33 µM and the solubility kinetic [1] is reported as > 294 µg/mL.
In the case of CN(C(=O)c1ccc(NC(=O)C(F)(F)F)cc1)[C@H]1CCc2cc(CNCC3CCOCC3)ccc2C1 [Example 2-02], the IC50 (human MCH receptor) is reported as 1.36 µM and the solubility kinetic [1] is reported as > 309 µg/mL.
In the case of CC1CCN(c2ccc(C(=O)N(C)[C@H]3CCc4cc(CNCC5CCOCC5)ccc4C3)cc2)CC1 [Example 2-03], the IC50 (human MCH receptor) is reported as 1.07 µM and the solubility kinetic [1] is reported as > 302 µg/mL.
For O=C(N[C@H]1CCc2cc(CNCC3CCOCC3)ccc2C1)c1ccc(NC(=O)C(F)(F)F)cc1 [Example 2-04], the IC50 (human MCH receptor) was 3.69 µM and the solubility kinetic [1] was 15 µg/mL (≈ 30.6 µM).
Compound CC1CCN(c2ccc(C(=O)N[C@H]3CCc4cc(CNCC5CCOCC5)ccc4C3)cc2)CC1 [Example 2-05] has an IC50 (human MCH receptor) of 0.248 µM and a solubility kinetic [1] of 15 µg/mL (≈ 31.5 µM).
Compound CCCCOc1ccc(C(=O)N(C)[C@H]2CCc3cc(CNCC4CCOCC4)ccc3C2)cc1 [Example 2-06] has an IC50 (human MCH receptor) of 0.146 µM and a solubility kinetic [1] of 203 µg/mL (≈ 437 µM).
In the case of CCCCOc1ccc(C(=O)N(C)[C@H]2CCc3cc(CNCC4CCOCC4)ccc3C2)nc1 [Example 2-07], the IC50 (human MCH receptor) is reported as 0.141 µM and the solubility kinetic [1] is reported as > 290 µg/mL.
For CCCOc1ccc(C(=O)N(C)[C@H]2CCc3cc(CNCC4CCOCC4)ccc3C2)nc1 [Example 2-08], the IC50 (human MCH receptor) was 0.22 µM and the solubility kinetic [1] was > 283 µg/mL.
With CC(C)COc1ccc(C(=O)N(C)[C@H]2CCc3cc(CNCC4CCOCC4)ccc3C2)nc1 [Example 2-09] the IC50 (human MCH receptor) was 0.36 µM and the solubility kinetic [1] was > 290 µg/mL.
